Laboratory results from BindingDB's records for doi:10.1016/j.ejmech.2018.10.033 (Key Laboratory of Molecular Pharmacology and Drug …, 2019).

Key:
[1] = Reversal of P-gp-mediated drug resistance in human KBV cells assessed as potentiation of paclitaxel-induced cytotoxicity by measuring paclitaxel IC50 at 10 uM after 48 hrs by MTT assay (Rvb = 1396.57 uM)
[2] = Reversal of P-gp-mediated drug resistance in human KBV cells assessed as potentiation of paclitaxel-induced cytotoxicity by measuring paclitaxel IC50 at 5 uM after 24 hrs by MTT assay (Rvb = 3837.57 uM)
[3] = Reversal of P-gp-mediated drug resistance in human KBV cells assessed as potentiation of paclitaxel-induced cytotoxicity by measuring paclitaxel IC50 at 5 uM after 72 hrs by MTT assay (Rvb = 398.34 +/- 0.58 uM)
[4] = Reversal of P-gp-mediated drug resistance in human KBV cells assessed as potentiation of paclitaxel-induced cytotoxicity by measuring paclitaxel IC50 at 10 uM after 72 hrs by MTT assay (Rvb = 398.34 +/- 0.58 uM)
[5] = Reversal of P-gp-mediated drug resistance in human KBV cells assessed as potentiation of paclitaxel-induced cytotoxicity by measuring paclitaxel IC50 at 10 uM after 24 hrs by MTT assay (Rvb = 3837.57 uM)
[6] = Reversal of P-gp-mediated drug resistance in human KBV cells assessed as potentiation of paclitaxel-induced cytotoxicity by measuring paclitaxel IC50 at 5 uM after 48 hrs by MTT assay (Rvb = 1396.57 uM)
[7] = Reversal of P-gp-mediated drug resistance in human KBV cells assessed as potentiation of paclitaxel-induced cytotoxicity by measuring paclitaxel IC50 at 10 uM

| Compound | IC50 [1] | IC50 [2] | IC50 [3] | IC50 [4] | IC50 [5] | IC50 [6] | IC50 [7] |
| --- | --- | --- | --- | --- | --- | --- | --- |
| CN(C)CCCOC(=O)[C@]12CCC(C)(C)C[C@H]1C1=CC[C@@H]3[C@@]4(C)Cc5nccnc5[C@@](C)(CO)[C@@H]4CC[C@@]3(C)[C@]1(C)CC2 | 17.2 nM | 49.8 nM | 12.3 nM | 1.59 nM | 35 nM | 21.2 nM |  |
| CC1(C)CC[C@]2(C(=O)OCc3ccccc3)CC[C@]3(C)C(=CC[C@@H]4[C@@]5(C)Cc6nccnc6[C@@](C)(CO)[C@@H]5CC[C@]43C)[C@@H]2C1 |  |  |  |  |  |  | 2.4 nM |
